This is an account of results in patent US12060338B2, “Benzothia(di)azepine compounds and their use as bile acid modulators” (Albireo AB, priority 2019, dated 2024).

One data set addresses T1, Human IBAT (Homo sapiens, UniProt Q12908).
T1 construct: expressed in transfected cells; kept under Puromycin selection
T1 sequence (Q12908 1-348): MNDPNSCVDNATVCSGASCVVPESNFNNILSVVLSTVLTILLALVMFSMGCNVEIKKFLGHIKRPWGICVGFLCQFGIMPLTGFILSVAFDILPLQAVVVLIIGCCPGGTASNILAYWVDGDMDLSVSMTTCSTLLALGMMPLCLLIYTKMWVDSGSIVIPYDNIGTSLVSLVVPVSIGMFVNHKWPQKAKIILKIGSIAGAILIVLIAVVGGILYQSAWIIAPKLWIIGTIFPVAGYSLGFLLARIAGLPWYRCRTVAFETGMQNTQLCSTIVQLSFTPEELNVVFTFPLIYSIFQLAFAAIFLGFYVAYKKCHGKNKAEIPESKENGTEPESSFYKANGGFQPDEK
The experiment in a line: IBAT assay, 3H-taurocholic acid uptake in human IBAT-overexpressing cells. The format is cell-based. The settings on record: read-out: hIBAT IC50. The method, then: 10,000 cells (Human or Mouse IBAT-overexpressing cells) were seeded in 96-wells plate (Corning CLS3809) in 200 μL MEM-alpha medium (Gibco 12571-063) supplemented with 10% FBS (Gibco 10438026) containing Puromycin (Gibco A1113803) (10 μg/mL) and incubated at 37° C. in 5% CO2 for 48 hours. After incubation, media was decanted from the wells and cells were washed two times with 300 μL of basal MEM-alpha medium (FBS-free). After decanting basal MEM-alpha medium each time, plates were tapped against paper towel to ensure maximum removal of residual media.
(§1) Test inhibitor dilutions (highest test concentration being 10 μM, 3-fold serial dilution, 10 points) prepared in DMSO (Sigma D2650) were added in incubation mix (maintaining 0.2% final DMSO concentration) containing 0.25 μM 3H-taurocholic acid (ARC ART-1368) and 5 μM of cold taurocholic acid (Sigma T4009). 50 μL of incubation mix containing test inhibitors was then added to the wells (in duplicate) and the plates were incubated for 20 minutes in a CO2 incubator at 37° C. After incubation, the reaction was stopped by keeping the plates on ice water mix for 2-3 minutes and then the incubation mix was aspirated completely from the wells. The wells were washed two times with 250 μL of chilled unlabelled 1 mM taurocholic acid dissolved in HEPES (Gibco 15630080)-buffered (10 mM) HBSS (Gibco 14175079) (pH 7.4). The plates were tapped against a paper towel after every wash to ensure maximum removal of blocking buffer.
100 μL of MicroScint-20 (PerkinElmer 6013621) was added to the wells and kept overnight at room temperature before reading the plates in TopCount NXT™ Microplate Scintillation and Luminescence Counter from PerkinElmer under 3H Test protocol (set at 120 seconds reading time per well).
(§2) All test compounds were provided in powder form at room temperature. 10 mM DMSO stocks of the test compounds were prepared, aliquoted and stored at −20° C. From the 10 mM DMSO stock of the compounds, a 3-fold serial dilution in DMSO was prepared to get a total of 10 dilutions of the test compounds. 0.5 μL of this dilution in DMSO was added to 250 μL of FBS-free basal media containing 3H-taurocholic acid and cold taurocholic acid to prepare the incubation mixture.

Another data set concerns the target T2, Human LBAT (Homo sapiens, UniProt Q14973).
T2 construct: expressed in transfected cells; kept under Geneticin selection
T2 sequence (Q14973 1-349): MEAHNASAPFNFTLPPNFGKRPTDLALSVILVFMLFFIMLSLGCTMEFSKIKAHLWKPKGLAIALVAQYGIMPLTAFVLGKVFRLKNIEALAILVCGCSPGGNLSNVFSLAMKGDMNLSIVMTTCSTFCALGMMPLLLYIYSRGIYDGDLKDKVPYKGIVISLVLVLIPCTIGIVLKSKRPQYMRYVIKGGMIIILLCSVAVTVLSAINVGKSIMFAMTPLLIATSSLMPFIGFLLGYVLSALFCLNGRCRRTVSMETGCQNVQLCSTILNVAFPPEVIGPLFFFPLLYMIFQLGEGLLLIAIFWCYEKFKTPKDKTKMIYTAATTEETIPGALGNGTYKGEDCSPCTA
Nature of the data set: LBAT assay, 3H-taurocholic acid uptake in human LBAT-overexpressing cells. The format is cell-based. The settings on record: read-out: hLBAT IC50. The procedure:
20,000 cells (Human or Mouse LBAT-overexpressing cells) were seeded in 96-wells plate (Corning CLS3809) in 100 μL MEM-alpha medium (Gibco 12571-063) supplemented with 10% FBS (Gibco 10438026) containing Geneticin (Gibco 10131-027) (1 mg/mL) and incubated at 37° C. in 5% CO2 for 24 hours. After incubation, media was decanted from the wells and cells were washed two times with 300 μL of basal MEM-alpha medium (FBS-free). After decanting basal MEM-alpha medium each time, plates were tapped against paper towel to ensure maximum removal of residual media.
For human LBAT, incubation mix was prepared by adding test inhibitor dilutions (3-fold serial dilution in DMSO (Sigma D2650), 10 points) in MEM-alpha (without FBS) containing 0.3 μM 3H-taurocholic acid (ARC ART-1368) and 7.5 μM cold taurocholic acid (Sigma T4009) (maintaining 0.2% final DMSO concentration). For mouse LBAT, incubation mix was prepared by adding test inhibitor dilutions (3-fold serial dilution in DMSO, 10 points) in MEM-alpha (without FBS) containing 0.3 μM 3H-taurocholic acid and 25 μM cold taurocholic acid maintaining 0.2% final DMSO concentration).
as §1, with “50” for “Test inhibitor dilutions (highest test concentration being 10 μM, 3-fold serial dilution, 10 points) prepared in DMSO (Sigma D2650) were added in incubation mix (maintaining 0.2% final DMSO concentration) containing 0.25 μM 3H-taurocholic acid (ARC ART-1368) and 5 μM of cold taurocholic acid (Sigma T4009). 50”
100 μL of MicroScint-20 (PerkinElmer 6013621) was added to the wells and kept overnight at room temperature before reading the plates in TopCount NXT™ Microplate Scintillation and Luminescence Counter from PerkinElmer under 3H Test protocol (set at 120 seconds reading time per well, with normal plate orientation).
as §2

Data set [1] in a line: Bidirectional permeability assay (Caco-2 cells). The data set is classed as in vitro ADME. Conditions: human; for Papp A→B at 120 min, 10 µM: Caco-2, pH 7.4, absorptive direction A2B; for Papp B→A at 120 min, 10 µM: Caco-2, pH 7.4, secretory direction B2A. An excerpt:
HepaRG-Based Assay Protocol
(In general: Passage across Caco-2 layers is used to estimate intestinal permeability.)

Data set [2] is described as follows: Bioavailability study in rats. The format is in vivo. Conditions: male, Wistar, plasma; rat; 1 mg/kg intravenous, 10 mg/kg oral. The method, then: (§3) Male mice (C57BL/6 or CD1) or Wistar rats of 8-10 weeks old were used. For each test compound, two groups of 3 animals each were used. One group was administered a single intravenous dose of 1 mg/kg (vehicle 100% DMSO) through the tail vein and the other group was administered a single oral dose of 10 mg/kg through gavage needle. The group that was administered an oral dose was fasted overnight. Blood samples were collected after 0.083, 0.25, 0.5, 1, 2, 4, 6, 8 and 24 hours following intravenous administration, and after 0.25, 0.5, 1, 2, 4, 6, 8 and 24 hours following oral administration. Blood samples were taken from saphenous vein. 0.2% EDTA was used as the anticoagulant. The samples were analyzed by a discovery grade bioanalytical method developed for the estimation of test compound in plasma, using an LC-MS/MS system.

A short description of data set [3]: Bioavailability study in mice. The data set is classed as in vivo. The settings on record: male, mouse, plasma, 1 mg/kg intravenous, 10 mg/kg oral. The procedure: as §3
The next data set concerns urinary total bile acids. Nature of the data set: Urinary bile acid output in dogs. The format is in vivo. Conditions: male Beagle dogs, once daily for three days at 10 and 50 mg/kg. The method, then: Male Beagle dogs were used in the study. Animals were dosed with the compound of Example 2 once daily for three days at 10 and 50 mg/kg, respectively. Basal urine samples were collected before study start by cystocentesis. Urine samples were then collected at 2 h and 8 h post-dosing on Day 1 and Day 3. Urine bile acids and urine creatinine analyses were performed at a clinical chemistry lab.

For the molecule `CCC[C@]1(C)CN(c2ccccc2)c2cc(SC)c(O/C=C(\F)C(=O)O)cc2S(=O)(=O)C1` (single isomer, unassigned) [Example 8], the figures for the IC50 at Human IBAT and on Human LBAT were 0.465 µM and 0.0052 µM, respectively. This molecule also registered a Papp A→B at 120 min, 10 µM in data set [1] of 36 nm/s. For the same molecule, in data set [1], the Papp B→A at 120 min, 10 µM came out at 62 nm/s.
As for `CCCC1(C)CN(c2ccccc2)c2cc(SC)c(OC=CC(=O)O)cc2S(=O)(=O)C1` (single isomer, unassigned) [Example 5], the IC50 at Human LBAT is 0.032 µM.
Consider `CCC1(C)CN(c2ccccc2)c2cc(SC)c(O/C=C(\F)C(=O)O)cc2S(=O)(=O)C1` (centres unmarked) [Example 10, (Z)-3-((3-ethyl-3-methyl-7-(methylthio)-1,1-dioxido-5-phenyl-2,3,4,5-tetrahydro-1,5-benzothiazepin-8-yl)oxy)-2-fluoroacrylic acid], for which the IC50 at Human IBAT amounted to 0.906 µM; at Human LBAT it was 0.083 µM.
Consider `CCCC[C@]1(C)CN(c2ccccc2)c2cc(SC)c(O/C=C(\F)C(=O)O)cc2S(=O)(=O)C1` (single isomer, unassigned) [Example 2], for which the bioavailability in data set [2] is 34.5%; in data set [3] (C57BL/6 mice) it was 15.7%; in data set [3] (CD1 mice), 32.1 to 55.7%. The concentration for half-maximal inhibition (IC50) on Human IBAT amounted to 0.0227 µM; at Human LBAT it was 0.0174 µM. Also, the “urinary total bile acids increase versus baseline” value with urinary total bile acids is reported as 5- to 10 fold. Also, in data set [1], the apical-to-basolateral permeability (Papp A→B) at 120 min, 10 µM turned out to be 36 nm/s. This molecule gave a basolateral-to-apical permeability (Papp B→A) at 120 min, 10 µM in data set [1] of 66 nm/s.
Consider `CCCC1(C)CN(c2ccccc2)c2cc(SC)c(O/C=C(\F)C(=O)O)cc2S(=O)(=O)C1` (centres unmarked) [Example 7, (Z)-2-fluoro-3-((3-methyl-7-(methylthio)-1,1-dioxido-5-phenyl-3-propy-2,3,4,5-tetrahydro-1,5-benzothiazepin-8-yl)oxy)acrylic acid], for which the IC50 on Human IBAT came to 0.435 µM; on Human LBAT, 0.023 µM.
For `CCCCC1(C)CN(c2ccccc2)c2cc(SC)c(O/C=C(\F)C(=O)O)cc2S(=O)(=O)C1` (centres unmarked) [Example 1, (Z)-3-((3-buty-3-methyl-7-(methylthio)-1,1-dioxido-5-phenyl-2,3,4,5-tetrahydro-1,5-benzothiazepin-8-yl)oxy)-2-fluoroacrylic acid] the same measures were 0.0237 µM and 0.0144 µM.
For `CCC[C@@]1(C)CN(c2ccccc2)c2cc(SC)c(O/C=C(\F)C(=O)O)cc2S(=O)(=O)C1` (single isomer, unassigned) [Example 9] the same measures were 0.186 µM and 0.056 µM.
The corresponding values for `CCCC1(C)CN(c2ccccc2)c2cc(SC)c(O/C=C/C(=O)O)cc2S(=O)(=O)C1` (centres unmarked) [Example 4, (E)-3-((3-methyl-7-(methylthio)-1,1-dioxido-5-phenyl-3-propy-2,3,4,5-tetrahydro-1,5-benzothiazepin-8-yl)oxy)acrylic acid] are 0.564 µM and 0.066 µM.
On to `CCCC[C@@]1(C)CN(c2ccccc2)c2cc(SC)c(O/C=C(\F)C(=O)O)cc2S(=O)(=O)C1` (single isomer, unassigned) [Example 3], for which the values for the IC50 at Human IBAT and on Human LBAT were 0.735 µM and 0.0092 µM, respectively. For the same molecule, the Papp A→B at 120 min, 10 µM in data set [1] came to 36 nm/s. The molecule also registered a Papp B→A at 120 min, 10 µM in data set [1] of 93 nm/s.
Turning to `CCC[C@]1(C)CN(c2ccccc2)c2cc(SC)c(O/C=C/C(=O)O)cc2S(=O)(=O)C1` (single isomer, unassigned) [Example 6], the IC50 is 0.678 µM on Human IBAT and 1.05 µM at Human LBAT.

For orientation: IC50 means the concentration that gives 50% inhibition. Usually Papp A→B stands for the apparent permeability from the apical to the basolateral side of a cell layer. Usually Papp B→A stands for how fast a substance crosses the layer from the basolateral side. A word on the bioavailability: it is dose-corrected exposure relative to a reference, in per cent.
